Assay results taken from patent publication US12064398B2, “Parenteral formulations” (Jazz Pharmaceuticals Research UK Limited, priority 2016, dated 2024).

Assay: Solubility screening of CBD in solvents/diluents/surfactants
Format: physicochemical
Procedure: […] All the vials were sonicated tor 5 minutes and then left on a roller mixer, mixing for 48 hours. The roller mixer was covered with aluminium foil to prevent light exposure.
After 48 hours, all samples were centrifuged, and the supernatants taken (250 or 500 μL) using a Gilson pipette and added into a 10 ml volume flask. Methanol was used to make up the volume and the samples were tested by HPLC. Sample numbers 5, 9 and 10 were assayed using visual observation as the amount of API that could be added was so high.

## C=C(C)[C@@H]1CCC(C)=C[C@H]1c1c(O)cc(CCCCC)cc1O [CBD, cannabidiol]
Crodosal HS (0.5% w/v), HPLC
  ASSAY CBD: 2.6529 mg/mL
Crodosal HS (1% w/v), HPLC
  ASSAY CBD: 5.4462 mg/mL
Crodosal HS (2% w/v), HPLC
  ASSAY CBD: 5.0344 mg/mL
Crodosal HS (3% w/v), HPLC
  ASSAY CBD: 6.3465 mg/mL
Crodosal HS (4% w/v), HPLC
  ASSAY CBD: 7.5569 mg/mL
Crodosal HS (5% w/v), HPLC
  ASSAY CBD: 7.9983 mg/mL
ETOH (0.5% v/v), HPLC
  ASSAY CBD: 0.0496 mg/mL
ETOH (1% v/v), HPLC
  ASSAY CBD: 0.0426 mg/mL
ETOH (3% v/v), HPLC
  ASSAY CBD: 0.0054 mg/mL
ETOH (5% v/v), HPLC
  ASSAY CBD: 0.0244 mg/mL
ETOH (100% v/v), visual observation
  ASSAY CBD: >1000 mg/mL
Glucose (5% w/v), HPLC
  ASSAY CBD: 0.0008 mg/mL
Glucose (10% w/v), HPLC
  ASSAY CBD: 0.2379 mg/mL
Glycerol (10% v/v), HPLC
  ASSAY CBD: 0.0029 mg/mL
Glycerol (20% v/v), HPLC
  ASSAY CBD: 0.0437 mg/mL
Glycerol (40% v/v), HPLC
  ASSAY CBD: 0.0859 mg/mL
Mannitol (5% w/v), HPLC
  ASSAY CBD: 0.0009 mg/mL
Mannitol (10% w/v), HPLC
  ASSAY CBD: 0.0148 mg/mL
PEG400 (5% v/v), HPLC
  ASSAY CBD: 0.1596 mg/mL
PEG400 (15% v/v), HPLC
  ASSAY CBD: 0.1946 mg/mL
PEG400 (25% v/v), HPLC
  ASSAY CBD: 0.1617 mg/mL
PEG400 (100% v/v), visual observation
  ASSAY CBD: >400 mg/mL
PEG400 and ethanol increased to 50% in water
  dissolution of the 10 mg of CBD added: did not dissolve completely
PVP K12 (1% w/v), HPLC
  ASSAY CBD: 0.0615 mg/mL
PVP K12 (2% w/v), HPLC, high assay result probably due to sampling problem
  ASSAY CBD: 0.1746 mg/mL
PVP K12 (3% w/v), HPLC
  ASSAY CBD: 0.0639 mg/mL
PVP K12 (5% w/v), HPLC
  ASSAY CBD: 0.0157 mg/mL
PVP K17 (1% w/v), HPLC
  ASSAY CBD: 0.0031 mg/mL
PVP K17 (2% w/v), HPLC
  ASSAY CBD: 0.0433 mg/mL
PVP K17 (3% w/v), HPLC
  ASSAY CBD: 0.0409 mg/mL
PVP K17 (5% w/v), HPLC
  ASSAY CBD: 0.2360 mg/mL
Pluronic F68 (1% w/v), HPLC
  ASSAY CBD: 0.1403 mg/mL
Pluronic F68 (2% w/v), HPLC
  ASSAY CBD: 0.5209 mg/mL
Pluronic F68 (3% w/v), HPLC
  ASSAY CBD: 0.5042 mg/mL
Pluronic F68 (5% w/v), HPLC
  ASSAY CBD: 1.0654 mg/mL
Polysorbate 80 (0.5% w/v), HPLC
  ASSAY CBD: 3.2600 mg/mL
Polysorbate 80 (1% w/v), HPLC
  ASSAY CBD: 6.0415 mg/mL
Polysorbate 80 (3% w/v), HPLC
  ASSAY CBD: 22.9779 mg/mL
Polysorbate 80 (5% w/v), HPLC
  ASSAY CBD: 30.6529 mg/mL
Saline (0.45% w/v), HPLC
  ASSAY CBD: 0.0021 mg/mL
Saline (0.9% w/v), HPLC
  ASSAY CBD: 0.0551 mg/mL
Sucrose (5% w/v), HPLC
  ASSAY CBD: 0.0202 mg/mL
Sucrose (10% w/v), HPLC
  ASSAY CBD: 0.0822 mg/mL
Trehalose (5% w/v), HPLC
  ASSAY CBD: 0.0600 mg/mL
Trehalose (10% w/v), HPLC
  ASSAY CBD: 0.0124 mg/mL
t-butyl alcohol (TBA), (100% v/v), visual observation
  ASSAY CBD: >600 mg/mL
